Results taken from ChEMBL document CHEMBL1765084, “Pyrimidine-2,4,6-trione derivatives and their inhibition of mutant SOD1-dependent protein aggregation. Toward a treatment for amyotrophic lateral sclerosis” (J Med Chem, 2011).
In brackets after ≈: the same amount, converted by molar mass. Activity calls are given as the source filed them. The calls are words filed in the database; no cut-off is given here.

What was measured:
PC-12 [1] = assay: Cytoprotection against SOD1 G93A mutant induced cytotoxicity in rat PC12 cells assessed as reduction of protein aggregates by fluorescent assay; type: functional, cell-based
Plasma [2] = assay: Half life in B6SJL mouse plasma by LC-MS/MS analysis
Cytochrome P450 2C19 = Cytochrome P450 2C19 (Homo sapiens, UniProt P33261); assay: Inhibition of CYP2C19 in human liver microsomes
Sequence of Cytochrome P450 2C19 (P33261 whole entry): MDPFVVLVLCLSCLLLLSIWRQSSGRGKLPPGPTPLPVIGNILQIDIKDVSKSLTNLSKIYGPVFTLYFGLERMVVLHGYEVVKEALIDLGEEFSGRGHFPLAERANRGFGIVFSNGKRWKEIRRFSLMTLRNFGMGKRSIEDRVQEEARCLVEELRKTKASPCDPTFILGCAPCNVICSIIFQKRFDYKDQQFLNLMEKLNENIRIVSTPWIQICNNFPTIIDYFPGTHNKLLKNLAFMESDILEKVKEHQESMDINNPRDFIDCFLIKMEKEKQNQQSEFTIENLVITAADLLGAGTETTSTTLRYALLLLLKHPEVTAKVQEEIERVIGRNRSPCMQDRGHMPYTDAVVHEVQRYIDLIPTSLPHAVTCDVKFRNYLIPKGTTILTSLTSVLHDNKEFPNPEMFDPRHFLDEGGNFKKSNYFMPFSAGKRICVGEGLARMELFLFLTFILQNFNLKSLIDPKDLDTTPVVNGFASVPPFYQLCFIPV

[3] = molecular target: T1, Estrogen receptor (Homo sapiens) (UniProt P03372); assay: Inhibition of ER alpha receptor at 10 uM by radioligand binding assay
T1 sequence (whole entry): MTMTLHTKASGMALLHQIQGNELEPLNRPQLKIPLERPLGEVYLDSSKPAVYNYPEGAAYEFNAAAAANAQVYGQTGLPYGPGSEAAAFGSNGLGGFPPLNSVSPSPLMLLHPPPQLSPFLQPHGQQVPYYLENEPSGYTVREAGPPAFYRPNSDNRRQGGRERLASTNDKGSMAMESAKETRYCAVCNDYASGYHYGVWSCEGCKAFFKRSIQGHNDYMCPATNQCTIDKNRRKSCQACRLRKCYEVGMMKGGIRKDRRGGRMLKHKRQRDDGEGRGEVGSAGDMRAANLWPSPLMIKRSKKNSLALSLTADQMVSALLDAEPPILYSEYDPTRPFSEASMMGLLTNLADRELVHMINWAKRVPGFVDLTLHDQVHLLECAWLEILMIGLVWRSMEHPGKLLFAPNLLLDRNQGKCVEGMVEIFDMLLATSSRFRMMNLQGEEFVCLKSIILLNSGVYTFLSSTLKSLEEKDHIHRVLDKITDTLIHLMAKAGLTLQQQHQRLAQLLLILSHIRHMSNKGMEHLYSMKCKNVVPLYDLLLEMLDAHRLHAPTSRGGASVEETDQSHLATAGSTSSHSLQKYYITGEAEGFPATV

[4] = molecular target: D(3) dopamine receptor (Homo sapiens) (UniProt P35462); assay: Inhibition of dopamine D3 receptor at 10 uM by radioligand binding assay
Sequence of D(3) dopamine receptor (Homo sapiens) (P35462 whole entry): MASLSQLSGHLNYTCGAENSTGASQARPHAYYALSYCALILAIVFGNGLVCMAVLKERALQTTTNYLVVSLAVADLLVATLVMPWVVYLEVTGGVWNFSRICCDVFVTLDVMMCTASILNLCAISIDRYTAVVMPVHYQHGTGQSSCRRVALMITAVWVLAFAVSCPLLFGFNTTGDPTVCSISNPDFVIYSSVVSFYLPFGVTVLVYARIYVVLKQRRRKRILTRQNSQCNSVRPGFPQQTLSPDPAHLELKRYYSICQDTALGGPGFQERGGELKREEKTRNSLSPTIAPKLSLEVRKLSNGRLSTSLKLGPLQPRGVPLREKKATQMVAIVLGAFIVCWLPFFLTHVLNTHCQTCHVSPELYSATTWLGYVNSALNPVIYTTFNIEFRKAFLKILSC

Cytochrome P450 3A4 = Cytochrome P450 3A4 (Homo sapiens, UniProt P08684); assay: Inhibition of CYP3A4 in human liver microsomes; type: ADME, Microsome
Sequence of Cytochrome P450 3A4 (P08684 whole entry): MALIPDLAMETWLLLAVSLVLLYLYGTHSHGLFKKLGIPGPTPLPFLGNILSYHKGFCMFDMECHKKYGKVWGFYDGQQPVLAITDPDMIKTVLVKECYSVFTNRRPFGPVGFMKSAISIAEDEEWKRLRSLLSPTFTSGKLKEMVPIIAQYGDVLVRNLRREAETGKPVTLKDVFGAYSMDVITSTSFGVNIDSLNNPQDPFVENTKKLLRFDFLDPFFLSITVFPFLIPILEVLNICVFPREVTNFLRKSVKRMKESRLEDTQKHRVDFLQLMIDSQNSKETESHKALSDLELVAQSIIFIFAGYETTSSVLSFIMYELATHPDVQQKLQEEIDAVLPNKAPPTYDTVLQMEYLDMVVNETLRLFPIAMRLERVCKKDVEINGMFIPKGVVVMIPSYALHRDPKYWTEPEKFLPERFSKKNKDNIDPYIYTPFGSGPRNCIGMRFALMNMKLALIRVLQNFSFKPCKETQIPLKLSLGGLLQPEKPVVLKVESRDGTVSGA

Cytochrome P450 1A2 = molecular target: T2, Cytochrome P450 1A2 (Homo sapiens, UniProt P05177); assay: Inhibition of CYP1A2 in human liver microsomes
T2 sequence (P05177 whole entry): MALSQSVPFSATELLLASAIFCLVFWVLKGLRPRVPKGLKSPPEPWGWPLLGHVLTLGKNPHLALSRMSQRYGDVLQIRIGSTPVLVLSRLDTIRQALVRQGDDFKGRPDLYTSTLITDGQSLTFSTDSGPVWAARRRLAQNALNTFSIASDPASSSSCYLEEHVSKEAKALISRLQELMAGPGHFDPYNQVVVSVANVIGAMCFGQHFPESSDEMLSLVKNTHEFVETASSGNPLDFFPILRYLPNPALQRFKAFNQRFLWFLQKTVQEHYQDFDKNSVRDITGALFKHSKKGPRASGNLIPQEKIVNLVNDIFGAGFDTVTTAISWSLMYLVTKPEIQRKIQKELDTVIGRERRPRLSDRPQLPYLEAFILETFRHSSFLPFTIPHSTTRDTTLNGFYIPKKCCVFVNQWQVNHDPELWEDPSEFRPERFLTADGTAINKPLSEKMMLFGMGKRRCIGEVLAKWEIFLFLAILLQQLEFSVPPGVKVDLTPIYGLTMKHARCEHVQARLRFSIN

Rattus norvegicus [5] = assay: AUC/dose in Sprague-Dawley rat at 1 mg/kg, iv; type: ADME, organism-based, Plasma; set-up: dose 1 mg/kg, route intravenous; conditions: in vivo
Plasma [6] = assay: Plasma protein binding in rat at 2 uM; type: ADME, cell-free
Cytochrome P450 2D6 = Cytochrome P450 2D6 (Homo sapiens, UniProt P10635); assay: Inhibition of CYP2D6 in human liver microsomes; type: ADME, Microsome
Sequence of Cytochrome P450 2D6 (P10635 whole entry): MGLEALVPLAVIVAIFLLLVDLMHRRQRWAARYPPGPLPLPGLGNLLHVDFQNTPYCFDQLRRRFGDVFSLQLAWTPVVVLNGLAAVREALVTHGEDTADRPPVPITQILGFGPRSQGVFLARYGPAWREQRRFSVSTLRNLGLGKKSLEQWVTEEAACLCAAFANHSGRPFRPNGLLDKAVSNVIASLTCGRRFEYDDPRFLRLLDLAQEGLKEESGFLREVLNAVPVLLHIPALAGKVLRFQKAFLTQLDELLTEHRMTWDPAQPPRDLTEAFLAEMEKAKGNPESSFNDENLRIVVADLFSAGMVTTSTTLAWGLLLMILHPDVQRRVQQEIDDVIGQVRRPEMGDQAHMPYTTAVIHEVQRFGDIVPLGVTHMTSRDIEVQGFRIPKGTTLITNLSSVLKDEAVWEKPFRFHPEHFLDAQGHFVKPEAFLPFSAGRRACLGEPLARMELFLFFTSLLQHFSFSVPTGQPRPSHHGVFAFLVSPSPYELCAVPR

Liver = assay: Half life of the compound in B6SJL mouse liver microsome; conditions: microsomes
Caco-2 [7] = assay: Apparent Permeability across basolateral to apical side in human Caco2 cells at 50 uM after 2 hrs; conditions: caco-2, 2 h
Cytochrome P450 2C9 = Cytochrome P450 2C9 (Homo sapiens, UniProt P11712); assay: Inhibition of CYP2C9 in human liver microsomes
Sequence of Cytochrome P450 2C9 (P11712 whole entry): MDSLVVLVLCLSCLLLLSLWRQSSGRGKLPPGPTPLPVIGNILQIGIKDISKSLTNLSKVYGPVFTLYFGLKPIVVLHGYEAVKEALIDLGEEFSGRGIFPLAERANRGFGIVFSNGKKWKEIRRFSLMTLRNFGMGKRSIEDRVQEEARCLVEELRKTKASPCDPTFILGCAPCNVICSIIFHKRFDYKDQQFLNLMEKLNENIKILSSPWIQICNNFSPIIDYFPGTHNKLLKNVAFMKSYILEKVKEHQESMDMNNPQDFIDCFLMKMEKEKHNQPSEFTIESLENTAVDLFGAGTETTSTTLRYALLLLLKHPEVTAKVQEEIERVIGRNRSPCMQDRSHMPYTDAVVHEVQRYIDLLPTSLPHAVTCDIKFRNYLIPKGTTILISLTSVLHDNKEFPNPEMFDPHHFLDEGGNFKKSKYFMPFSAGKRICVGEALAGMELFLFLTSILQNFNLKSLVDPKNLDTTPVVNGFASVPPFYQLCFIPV

Rattus norvegicus [8] = assay: Volume of distribution at steady state in Sprague-Dawley rat at 1 mg/kg, iv; type: ADME, organism-based; set-up: dose 1 mg/kg, route intravenous; conditions: in vivo
PC-12 [9] = assay: Cytoprotection against SOD1 G93A mutant induced cytotoxicity in rat PC12 cells assessed as reduction of protein aggregates at 10 uM by fluorescent assay in presence of proteasome inhibitor MG132; type: functional, cell-based
Rattus norvegicus [10] = assay: Half life in Sprague-Dawley rat at 1 mg/kg, po; type: ADME, organism-based; set-up: dose 1 mg/kg, route oral; conditions: in vivo
[11] = Inhibition of sodium channel site 2 at 10 uM by radioligand binding assay
PC-12 [12] = assay: Cytoprotection against SOD1 G93A mutant induced cytotoxicity in rat PC12 cells after 24 hrs by fluorescent assay; type: functional, cell-based
PC-12 [13] = assay: Cytoprotection against SOD1 G93A mutant induced cytotoxicity in rat PC12 cells assessed as reduction of protein aggregates at 1 uM by fluorescent assay; type: functional, cell-based
Rattus norvegicus [14] = assay: AUC last in Sprague-Dawley rat at 1 mg/kg, iv; type: ADME, organism-based, Plasma; set-up: time 0 - last, dose 1 mg/kg, route intravenous; conditions: in vivo
Rattus norvegicus [15] = assay: Tmax in Sprague-Dawley rat at 1 mg/kg, po; type: ADME, organism-based; set-up: dose 1 mg/kg, route oral; conditions: in vivo
Rattus norvegicus [16] = assay: Half life in Sprague-Dawley rat at 1 mg/kg, iv; type: ADME, organism-based; set-up: dose 1 mg/kg, route intravenous; conditions: in vivo
Rattus norvegicus [17] = assay: Oral bioavailability in Sprague-Dawley rat at 1 mg/kg; type: ADME, organism-based; conditions: in vivo
[18] = Inhibition of GABA transporter at 10 uM by radioligand binding assay
Liver microsomes = assay: Half life of the compound in human liver microsomes
hERG (KCNH2) = hERG (KCNH2) (Homo sapiens, UniProt Q12809); assay: Inhibition of human ERG in cells at 10 uM by patch clamp assay relative to control; conditions: cells expressing human ERG
Sequence of hERG (KCNH2) (Q12809 whole entry): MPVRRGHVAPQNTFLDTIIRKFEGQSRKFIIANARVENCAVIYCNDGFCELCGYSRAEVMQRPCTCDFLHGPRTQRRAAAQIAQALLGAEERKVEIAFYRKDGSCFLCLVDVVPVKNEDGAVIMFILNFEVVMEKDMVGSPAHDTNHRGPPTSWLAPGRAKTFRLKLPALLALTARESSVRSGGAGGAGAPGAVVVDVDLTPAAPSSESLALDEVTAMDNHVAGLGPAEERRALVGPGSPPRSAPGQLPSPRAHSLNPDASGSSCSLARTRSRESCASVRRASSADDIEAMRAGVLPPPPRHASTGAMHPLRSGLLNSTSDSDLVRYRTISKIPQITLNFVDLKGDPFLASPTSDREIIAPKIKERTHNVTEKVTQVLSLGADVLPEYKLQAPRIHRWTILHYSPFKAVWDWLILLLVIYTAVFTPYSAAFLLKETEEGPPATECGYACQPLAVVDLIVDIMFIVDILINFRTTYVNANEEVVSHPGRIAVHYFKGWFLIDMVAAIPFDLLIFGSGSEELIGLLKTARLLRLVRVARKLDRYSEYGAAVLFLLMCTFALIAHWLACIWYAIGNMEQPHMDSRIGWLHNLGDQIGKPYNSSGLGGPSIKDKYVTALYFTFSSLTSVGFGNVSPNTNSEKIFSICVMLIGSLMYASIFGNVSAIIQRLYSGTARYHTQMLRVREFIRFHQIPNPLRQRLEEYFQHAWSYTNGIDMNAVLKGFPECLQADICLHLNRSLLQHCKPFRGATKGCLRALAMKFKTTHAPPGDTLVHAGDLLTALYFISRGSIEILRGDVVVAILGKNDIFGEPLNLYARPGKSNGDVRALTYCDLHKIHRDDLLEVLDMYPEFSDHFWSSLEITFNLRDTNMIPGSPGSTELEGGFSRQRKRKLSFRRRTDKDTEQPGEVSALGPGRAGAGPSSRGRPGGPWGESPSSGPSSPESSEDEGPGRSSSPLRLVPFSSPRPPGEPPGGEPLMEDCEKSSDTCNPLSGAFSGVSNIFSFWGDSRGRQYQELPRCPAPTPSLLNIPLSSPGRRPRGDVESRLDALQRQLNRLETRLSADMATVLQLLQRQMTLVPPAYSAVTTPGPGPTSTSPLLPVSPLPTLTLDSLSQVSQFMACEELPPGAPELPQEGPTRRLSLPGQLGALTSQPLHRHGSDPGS

Rattus norvegicus [19] = assay: Cmax in Sprague-Dawley rat at 1 mg/kg, po; type: ADME, organism-based; set-up: dose 1 mg/kg, route oral; conditions: in vivo
Plasma [20] = assay: Plasma protein binding in human at 2 uM; type: ADME, cell-free
Rattus norvegicus [21] = assay: AUC/dose in Sprague-Dawley rat at 1 mg/kg, po; type: ADME, organism-based, Plasma; set-up: dose 1 mg/kg, route oral; conditions: in vivo
[22] = Ratio of permeability from basolateral to apical side over apical to basolateral side in human Caco2 cells; conditions: Caco-2
[23] = Solubility of the compound in PBS buffer after 16 hrs
Caco-2 [24] = assay: Apparent Permeability across apical side to basolateral side in human Caco2 cells at 50 uM after 2 hrs; conditions: caco-2, 2 h

O=C1CC(=O)N(CCN2CCOCC2)C(=O)N1CCc1ccc(F)cc1
EC50 (PC-12 [1]): > 32000 nM

O=C1C(=O)N(CCc2ccccc2)C(=O)N1CCc1ccccc1
EC50 (PC-12 [1]): > 32000 nM

CCCCCCCCN1C(=O)CC(=O)N(CCc2ccccc2)C1=O
EC50 (PC-12 [1]): 710 nM

O=C1CC(=O)N(CCc2ccc(Cl)cc2)C(=O)N1CCc1ccc(Cl)cc1
EC50 (PC-12 [1]): 3260 nM

O=C1CCC(=O)N(CCc2ccccc2)C(=O)N1CCc1ccccc1
EC50 (PC-12 [1]): > 32000 nM

O=C1CC(=O)N(CCc2ccccc2)C(=O)N1CCc1ccccc1
t1/2 (Plasma [2]): 60.5 min
IC50 (Cytochrome P450 2C19): > 50 µM
inhibition [3]: 20%
inhibition [4]: 41%
IC50 (Cytochrome P450 3A4): > 50 µM
IC50 (Cytochrome P450 1A2): > 50 µM
AUC/dose (Rattus norvegicus [5]): 126 ng·h/mL
PPB (Plasma [6]): 95%
IC50 (Cytochrome P450 2D6): > 50 µM
t1/2 (Liver): 39 min
Papp (Caco-2 [7]): 26 ×10⁻⁶ cm/s
IC50 (Cytochrome P450 2C9): > 50 µM
EC50 (PC-12 [1]): 1680 nM
Vdss (Rattus norvegicus [8]): 9 L/kg
Activity (PC-12 [9]): Active
t1/2 (Rattus norvegicus [10]): 1.4 h
inhibition [11]: 21%
Activity (PC-12 [12]): Dose-dependent effect
Activity (PC-12 [13]): Dose-dependent effect
AUClast (Rattus norvegicus [14]): 121 ng·h/mL
Tmax (Rattus norvegicus [15]): 45 min
t1/2 (Rattus norvegicus [16]): 57 min
F (Rattus norvegicus [17]): 98%
inhibition [18]: 19%
t1/2 (Liver microsomes): 61 min
inhibition at 10 µM (hERG (KCNH2)): 4.9%
Cmax (Rattus norvegicus [19]): 55 ng/mL
PPB (Plasma [20]): 90%
AUC/dose (Rattus norvegicus [21]): 124 ng·h/mL

O=C1C(=Cc2c(Cl)cccc2Cl)C(=O)N(CCc2ccccc2)C(=O)N1CCc1ccccc1
EC50 (PC-12 [1]): 3100 nM

O=C1CC(=O)N(CCc2ccccc2)C(=O)N1CCCc1ccccc1
EC50 (PC-12 [1]): 1880 nM

O=C1CC(=O)N(CCc2ccc(F)cc2)C(=O)N1CCOc1ccccc1
EC50 (PC-12 [1]): 1320 nM

CCOCCN1C(=O)CC(=O)N(CCOCC)C1=O
EC50 (PC-12 [1]): 7750 nM

O=C1CC(=O)N(Cc2ccccc2)C(=O)N1Cc1ccccc1
EC50 (PC-12 [1]): 4580 nM

Cc1ccccc1C=C1C(=O)N(CCc2ccccc2)C(=O)N(CCc2ccccc2)C1=O
EC50 (PC-12 [1]): 2230 nM

O=C1CC(=O)N(C2CCCCC2)C(=O)N1CCc1ccccc1
EC50 (PC-12 [1]): 1670 nM

CC(C)OCCN1C(=O)CC(=O)N(CCc2ccc(F)cc2)C1=O
EC50 (PC-12 [1]): 2970 nM

CC(C)(C)CCN1C(=O)CC(=O)N(CCC(C)(C)C)C1=O
EC50 (PC-12 [1]): 2030 nM

COc1ccc(CCN2C(=O)CC(=O)N(CCc3ccc(OC)cc3)C2=O)cc1
EC50 (PC-12 [1]): 3360 nM

O=C1CC(=O)N(CCCCc2ccccc2)C(=O)N1CCCCc1ccccc1
t1/2 (Plasma [2]): 21.8 min
efflux ratio [22]: 3.3
solubility [23]: 105 µM (≈ 41.2 µg/mL)
t1/2 (Liver): 11 min
Papp (Caco-2 [7]): 30.2 ×10⁻⁶ cm/s
EC50 (PC-12 [1]): 680 nM
Papp (Caco-2 [24]): 9.2 ×10⁻⁶ cm/s
t1/2 (Liver microsomes): 15 min

O=C1CC(=O)N(C2CCCCC2)C(=O)N1C1CCCCC1
EC50 (PC-12 [1]): 2970 nM

CC1(C)C(=O)N(CCc2ccccc2)C(=O)N(CCc2ccccc2)C1=O
EC50 (PC-12 [1]): > 32000 nM

O=C1CC(=O)N(C2CCc3ccccc32)C(=O)N1C1CCc2ccccc21 (stereo not given)
EC50 (PC-12 [1]): > 32000 nM

O=C1CC(=O)N(CCc2ccc(F)cc2)C(=O)N1CCCCc1ccccc1
EC50 (PC-12 [1]): 3550 nM

O=C1CC(=O)N(C2CCCCC2)C(=O)N1
EC50 (PC-12 [1]): > 32000 nM

COc1cc(=O)n(CCc2ccccc2)c(=O)n1CCc1ccccc1
EC50 (PC-12 [1]): > 32000 nM

O=C1CC(=O)N(Cc2ccccc2)C(=O)N1CCc1ccccc1
EC50 (PC-12 [1]): 1900 nM

O=C1CC(=O)N(CCc2ccc(Cl)cc2)C(=O)N1CCc1ccccc1
EC50 (PC-12 [1]): 1190 nM
